According to patent US20080280837A1, “Biologically Active Compounds with Anti-Angiogenic Properties” (priority 2004, published 2008):
Counter-ions that a name gives are not always drawn.

How the values were obtained:
[1] = test system: HUVEC tube formation; experiment: Matrigel tube formation assay; assay type: cell-based, human
Method: HUVEC (Clonetics) were plated in 96 well plates in EGM-2 media (Clonetics) at 2.5 to 3×10^4 cells per well. Cells of less than 6 passages were used in all studies. Wells were precoated with 50 μL growth factor containing Matrigel (Becton Dickinson). HUVEC were allowed to form tubes by incubation at 37° C. in 5% CO2 for 22 hrs. In test wells compound was added in the desired concentration. Photographic images of the wells ×4 magnification were used to determine size of the tubes, length of tubes and number of junctions using image analysis software.

[2] = in vitro; conditions: human, Caco-2
Method: The Caco-2 assay was performed according to the procedure described in the following cited article [Caco-2 Monolayers in Experimental and Theoretical Predictions of Drug Transport, Artursson P, Palm K, Luthman K., Adv. Drug Deliv. Rev., 2001, 46, 27-43].

[3] = Solubility of salts of compound 1; assay type: physicochemical; conditions: for Solubility in Water: overnight
[4] = test system: MV522 human NSCLC tumour xenograft; experiment: Nude mouse model of human MV522 non-small cell lung cancer tumours; assay type: in vivo, nude mice; conditions: group five: paclitaxel 16 mg/kg i.p. qdx5 alone
Method: Initial Maximum Tolerated Dose (MTD) studies were done in male nude mice to determine the appropriate intravenous dosing regimen for the MV522 human NSCLC tumour model. A range of doses between 0 and 50 mg/Kg for 28 days (qdx28) were tested. Mice were randomized into groups with 5 animals per group including vehicle control. Animals were weighed twice weekly starting on day one and observed daily for adverse reactions or toxicity due to the agent. MTD studies determined the selection of 20 mg/kg and 35 mg/kg for intravenous dosing once per day for 28 days in the MV522 human NSCLC tumour xenograft model.
Male nude mice (nu/nu) between 5 and 6 weeks of age weighing approximately 20 g were implanted subcutaneously (s.c) by trocar with fragments of MV522 human tumour carcinomas harvested from s.c growing tumours in host mice. MV-522 is a metastatic human lung adenocarcinoma line. When tumours reached approximately 72 mg in size animals were pair matched into treatment and control groups with 10 mice in each group. Each mouse was tagged and followed individually throughout the experiment.
“Compound 1” was administered i.v. in a saline vehicle from day one. Vehicle control group animals were administered saline i.v. There were nine treatment groups including the vehicle control group. […]
At the end of the treatment period the mice were weighed and sacrificed. Each tumour was excised and weighed and a mean actual tumour weight (mg) per group was calculated along with the mean actual volume (mm^3). […] Mean tumour regression was determined using the formula [1−(mean actual tumour weightFINAL/mean tumour weightDAY 1)×100%].

[5] = target: T1, SSTR-3 (Homo sapiens, UniProt P32745); experiment: Radioligand binding screen against somatostatin subtype SSTR-3; conditions: Table 8; shown where Ki could not be determined (NoModel); read-out: IC50 SSTR3 (in parentheses)
T1 construct: expressed in transfected cells
Method: (§1) Receptor membrane preparations containing the desired cloned receptor (for example cloned human somatostatin receptor subtype 5, SSTR5) and radio-labeled ligand (for example 3-[^125I]iodotyrosyl^11 Somatostatin-14)) were diluted at the concentration required for testing and according to the specific parameters associated with the selected receptor-ligand combination, including receptor Bmax, ligand Kd and any other parameters necessary to optimize the experimental conditions. When tested for competition activity to the reference ligand, “compound 1” was mixed with membrane suspension and the radiolabeled reference ligand (with or without an excess of cold ligand to the receptor for determination of non-specific binding) and incubated at the temperature required by internal standard operating procedures. Following incubation, the binding reaction was stopped by the addition of ice-cold washing buffer and filtered on appropriate filters, which are then counted. Data analysis and curve-fitting was performed with XLfit (IDBS).
(§2) 10 mM solutions of test compounds in 100% DMSO were prepared. ˜160 μl was used for each dilution (20 μl/well in triplicate).
(§3) A 1.25 mM assay stock was prepared by making a 1:8 dilution of the 10 mM solution. (To 30 μL of the 10 mM solution was added 210 μL milli-Q H2O. A 1:5 dilution series in milli-Q H2O was then prepared.
(§4) In primary screening experiments compounds were tested in duplicate for a particular concentration.

[6] = target: T2, Human SST5 somatostatin receptor (SSTR5) (Homo sapiens, UniProt P35346); experiment: Filter plate assay for SST5 receptor, displacement of [125I]SST-14; assay type: binding; conditions: Table 8
T2 construct: expressed in transfected cells; host or cells: HEK-293 EBNA
Summary of the method: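 HEK-293 EBNA membranes expressing human SST5 (5.5 μg) incubated 60 min at 25 °C with 4 nM [125I]SST-14 and compound in pH 7.5 Tris/EGTA/MgCl2/sucrose buffer. Bound radioactivity collected on PEI-coated glass fiber filters and counted; triplicate 1:5 dilution series from 125 μM, non-specific binding with excess cold ligand.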

[7] = test system: Human Umbilical Vein Endothelial Cells (HUVEC); experiment: Endothelial cell proliferation assay (MTS); assay type: cell-based; conditions: 48 hrs
Method: Human Umbilical Vein Endothelial Cells (HUVEC from Clonetics) were plated in 96 well plates at 1000 cell per well in EGM-2 medium (Clonetics). Cells were grown overnight at 37° C. in 5% CO2. Fresh EGM-2 medium containing compound at the desired concentration was added to the wells and the cells allowed to grow for a further 48 hrs. A MTS (Promega) colorimetric assay was performed after 48 hrs to determine cell growth according to the manufacturers instructions. Results are presented in terms of percentage growth.

[8] = target: T3, SSTR-2 (Homo sapiens, UniProt P30874); experiment: Radioligand binding screen against somatostatin subtype SSTR-2; conditions: Table 8; read-out: Ki SSTR2
T3 construct: expressed in transfected cells
Method: as §1, §2, §3, §4

[9] = target: T4, SSTR-1 (Homo sapiens, UniProt P30872); experiment: Radioligand binding screen against somatostatin subtype SSTR-1; conditions: Table 8; read-out: Ki SSTR1
T4 construct: expressed in transfected cells
Method: as §1, §2, §3, §4

[10] = target: T5, SSTR-4 (Homo sapiens, UniProt P31391); experiment: Radioligand binding screen against somatostatin subtype SSTR-4 (SST4 assay); conditions: Table 8; read-out: Ki SSTR4
T5 construct: expressed in transfected cells
Method: as §1, §2, §3
Assays were performed in triplicate at each concentration within the 1:5 dilution series: 250 μM, 50 μM, 10 μM, […], 0.4 μM, 0.08 μM, 0.016 μM, 0.0032 μM, etc. (for SST4 assay) and 125 μM, 10 μM, 2 μM, 1 μM, 0.5 μM, etc (for SST5 assay).
as §4

[11] = 22 hrs, 50% inhibition of tube formation

T3 sequence (P30874 whole entry): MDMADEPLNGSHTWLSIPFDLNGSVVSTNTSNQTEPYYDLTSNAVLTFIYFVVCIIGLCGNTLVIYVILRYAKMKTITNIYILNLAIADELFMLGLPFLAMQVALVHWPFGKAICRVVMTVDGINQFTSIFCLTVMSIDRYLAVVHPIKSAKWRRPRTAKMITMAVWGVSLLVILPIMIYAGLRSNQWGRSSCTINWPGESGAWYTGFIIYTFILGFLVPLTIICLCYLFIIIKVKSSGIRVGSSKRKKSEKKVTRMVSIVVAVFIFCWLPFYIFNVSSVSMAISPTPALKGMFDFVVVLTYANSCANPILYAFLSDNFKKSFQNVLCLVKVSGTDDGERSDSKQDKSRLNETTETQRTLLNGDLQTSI
T2 sequence (P35346 whole entry): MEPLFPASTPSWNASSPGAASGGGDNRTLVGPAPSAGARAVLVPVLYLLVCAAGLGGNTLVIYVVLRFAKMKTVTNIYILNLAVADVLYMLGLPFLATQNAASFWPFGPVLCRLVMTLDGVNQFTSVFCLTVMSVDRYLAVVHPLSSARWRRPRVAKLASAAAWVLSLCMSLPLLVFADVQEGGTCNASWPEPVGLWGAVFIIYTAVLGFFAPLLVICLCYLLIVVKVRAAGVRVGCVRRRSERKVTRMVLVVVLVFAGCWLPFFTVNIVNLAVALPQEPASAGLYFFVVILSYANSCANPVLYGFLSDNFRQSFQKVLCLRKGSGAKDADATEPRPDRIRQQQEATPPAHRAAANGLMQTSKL
T1 sequence (P32745 whole entry): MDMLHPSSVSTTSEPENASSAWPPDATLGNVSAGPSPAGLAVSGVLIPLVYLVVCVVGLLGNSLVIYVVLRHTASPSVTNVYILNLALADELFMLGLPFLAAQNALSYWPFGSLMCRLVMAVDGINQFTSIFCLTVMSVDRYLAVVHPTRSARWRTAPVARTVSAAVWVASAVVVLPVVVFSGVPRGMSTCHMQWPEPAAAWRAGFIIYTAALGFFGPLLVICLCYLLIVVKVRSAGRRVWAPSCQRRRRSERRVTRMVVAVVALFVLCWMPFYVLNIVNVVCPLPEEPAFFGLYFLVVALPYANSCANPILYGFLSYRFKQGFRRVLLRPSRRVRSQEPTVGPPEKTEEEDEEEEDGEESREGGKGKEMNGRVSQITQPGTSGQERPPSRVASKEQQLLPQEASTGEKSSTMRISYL
T4 sequence (P30872 whole entry, species assumed): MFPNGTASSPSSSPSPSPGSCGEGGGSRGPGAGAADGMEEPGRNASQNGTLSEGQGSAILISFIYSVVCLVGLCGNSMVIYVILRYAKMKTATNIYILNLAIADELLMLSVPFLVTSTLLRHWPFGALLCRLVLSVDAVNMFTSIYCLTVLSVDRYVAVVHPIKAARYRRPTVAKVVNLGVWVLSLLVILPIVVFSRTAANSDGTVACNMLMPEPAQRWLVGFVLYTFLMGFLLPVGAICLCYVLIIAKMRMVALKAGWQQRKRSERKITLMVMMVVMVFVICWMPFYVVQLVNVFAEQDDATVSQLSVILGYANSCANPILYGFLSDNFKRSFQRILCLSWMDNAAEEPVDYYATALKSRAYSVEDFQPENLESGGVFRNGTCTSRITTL
T5 sequence (P31391 whole entry): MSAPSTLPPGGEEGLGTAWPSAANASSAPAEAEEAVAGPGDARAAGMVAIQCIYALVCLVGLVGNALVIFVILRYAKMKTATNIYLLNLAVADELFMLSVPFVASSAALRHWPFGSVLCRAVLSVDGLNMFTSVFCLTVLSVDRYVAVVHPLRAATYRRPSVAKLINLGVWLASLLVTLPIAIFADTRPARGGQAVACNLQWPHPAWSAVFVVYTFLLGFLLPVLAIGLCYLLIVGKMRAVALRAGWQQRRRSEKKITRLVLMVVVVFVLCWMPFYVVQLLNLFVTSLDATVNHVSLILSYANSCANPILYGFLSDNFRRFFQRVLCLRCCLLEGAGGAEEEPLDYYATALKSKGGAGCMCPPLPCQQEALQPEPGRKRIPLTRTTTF

Structure (SMILES): COCC1OC(OCc2ccc(Cl)cc2)C(NC(=O)CCN)C(OCc2ccc3ccccc3c2)C1O (stereo not drawn) [3 alpha]
- EC50 [1, 11]: 45 µM

Structure (SMILES): OC[C@@H](O)[C@@H](O)[C@H](O)[C@H](O)CO [mannitol, reference compound]
- Papp [2]: 0.813 ×10⁻⁶ cm/s

Structure (SMILES): COCC1OC(OCc2ccc3ccccc3c2)C(NC(=O)CCN)C(OCc2ccc3ccccc3c2)C1O (stereo not drawn) [16 alpha]
- EC50 [1, 11]: 55 µM

Structure (SMILES): COC[C@H]1O[C@H](OCCc2ccccc2)[C@H](NC(=O)CCCN)[C@@H](OCc2ccc3ccccc3c2)[C@@H]1O [Acetate]
- Solubility in Water [3]: 6960 µg/mL

Structure (SMILES): COCC1OC(OCc2ccc(Cl)cc2)C(NC(=O)CCN)C(OCc2ccc3ccccc3c2)C1O (stereo not drawn) [3 beta]
- EC50 [1, 11]: 90 µM

Structure (SMILES): CC(=O)O[C@H]1C(=O)[C@@]2(C)[C@H]([C@H](OC(=O)c3ccccc3)[C@]3(O)C[C@H](OC(=O)[C@H](O)[C@@H](NC(=O)c4ccccc4)c4ccccc4)C(C)=C1C3(C)C)[C@]1(OC(C)=O)CO[C@@H]1C[C@@H]2O [paclitaxel, reference compound]
- Tumour growth inhibition (TGI) [4]: 42.1%

Structure (SMILES): COC[C@H]1O[C@H](OCCc2ccccc2)[C@H](NC(=O)CCCN)[C@@H](OCc2ccc3ccccc3c2)[C@@H]1O [Hydrochloride]
- solubility at 3 day ([3]; 5% glucose, saline or isotonic, 5% Glucose, Day 3): 6300 µg/mL
- Solubility in Water [3]: 7870 µg/mL

Structure (SMILES): COCC1OC(OCc2ccc3ccccc3c2)C(NC(=O)CCN)C(OCc2ccc(Cl)cc2)C1O (stereo not drawn) [7 alpha]
- EC50 [1, 11]: 50 µM

Structure (SMILES): COCC1OC(OCc2ccc3ccccc3c2)C(NC(=O)CCN)C(OCc2ccc(Cl)cc2)C1O (stereo not drawn) [7 beta]
- EC50 [1, 11]: 95 µM

Structure (SMILES): CS[C@@H]1O[C@H](COCc2ccc(Cl)cc2)[C@@H](O)[C@@H](OCc2ccc3ccccc3c2)[C@H]1NC(=O)CCN [Compound 9]
- EC50 ([1]; Homo sapiens, 22 h): 50 µM
- IC50 [5]: 0.0008 µM
- IC50 ([6]; shown where Ki could not be determined (NoModel), read-out: IC50 SSTR5 (in parentheses)): 0.0011 µM
- Percent cell growth at 125 µM [7]: -86%
- Percent cell growth at 250 µM [7]: -78%
- Ki [8]: 0.49 µM
- Ki [9]: > 10 µM
- Ki [10]: 0.463 µM

Structure (SMILES): COC[C@H]1O[C@H](OCCc2ccccc2)[C@H](NC(=O)CCCN)[C@@H](OCc2ccc3ccccc3c2)[C@@H]1O [Citrate]
- Solubility in Water [3]: 4540 µg/mL

Structure (SMILES): CS[C@@H]1O[C@H](COCc2ccc3ccccc3c2)[C@@H](O)[C@@H](OCc2ccc3ccccc3c2)[C@H]1NC(=O)CCN [Compound 10]
- EC50 ([1]; Homo sapiens, 22 h): 125 µM
- IC50 [5]: 0.228 µM
- Ki [6]: 0.22 µM
- Percent cell growth at 125 µM [7]: -85%
- Percent cell growth at 250 µM [7]: -63%
- Ki [8]: 0.726 µM
- Ki [9]: > 10 µM

Structure (SMILES): COC1C(O)C(COCc2ccc3ccccc3c2)OC(OCc2ccc(Cl)cc2)C1NC(=O)C1CCCN(C(=N)N)C1 (mixture of isomers) [14 mixture]
- EC50 [1, 11]: 155 µM

Structure (SMILES): COC[C@H]1O[C@H](OCCc2ccccc2)[C@H](NC(=O)CCCN)[C@@H](OCc2ccc3ccccc3c2)[C@@H]1O [TFA]
- Solubility in 5% Glucose ([3]; 5% Glucose, Day 3): 5270 µg/mL
- Solubility in Water [3]: 3640 µg/mL
